Results filed as inconclusive are left out. The source made the active and inactive calls. How the calls were made is not given here.
Assays:
[1] = dynein cargo transport inhibitors, potency, dose response, imaging, high-content imaging (AID 463136); details: HCS imaging, dynein-mediated cargo transport inhibition; inhibition at max concentration; at 50 µM; stronger effect = higher value;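 further: mouse mammary adenocarcinoma 3617.4 cells expressing GFP-tagged rat glucocorticoid receptor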; on inhibition: reference of the scale not given here
[2] = system: HCS imaging, dynein-mediated cargo transport inhibition; assay: as above

COC(=O)c1cc(=O)n(Cc2cccs2)c(=Nc2ccccc2)s1
inhibition [1]: 32.2% | IC50 [2]: > 50 µM (inactive)

O=C(Cn1ncc(Cl)c(Cl)c1=O)N1CCN(Cc2ccccc2)CC1
inhibition [1]: 62.9% | IC50 [2]: 5.63 µM

O=C(OCn1ncc(Br)c(Br)c1=O)c1c(F)cccc1F
inhibition [1]: 81.6% | IC50 [2]: 18.5 µM

CCSc1nc2ccccc2n1C(=O)/C=C\c1ccc(OC)c(OC)c1
inhibition [1]: 7.37% | IC50 [2]: > 50 µM (inactive)

Cc1ccc(N(C(=O)CCl)C(C(=O)NC2CCCCC2)c2cccnc2)cc1C (stereo not drawn)
inhibition [1]: 86.1% | IC50 [2]: 4.62 µM

Cn1c(=O)c(NCCO)c2c3c(cccc31)C(=O)c1ccccc1-2
inhibition [1]: -13.2% | IC50 [2]: > 50 µM (inactive)

O=C1CCCCc2sc(Br)c([N+](=O)[O-])c2N1
inhibition [1]: 66.9% | IC50 [2]: 7.06 µM

COc1ccc(OC)c(N2C(=O)NC(=O)/C(=C\c3ccc([N+](=O)[O-])s3)C2=O)c1
inhibition [1]: 86.7% | IC50 [2]: 11.9 µM

Cc1cc(Cl)n2c(nc3cc(F)c(F)cc32)c1C#N
inhibition [1]: 36.6% | IC50 [2]: 25.5 µM

Cc1ccc(C2=NOC(=O)/C2=C\c2ccc(C)o2)cc1
inhibition [1]: 79.8% | IC50 [2]: 39.9 µM

Nc1c(C(=O)C2CC2)sc2nc(-c3cccs3)cc(C(F)(F)F)c12
inhibition [1]: 66.4% | IC50 [2]: 38.7 µM

CC(=O)Nc1sc(/C(C#N)=C/c2ccc(Cl)c(Cl)c2)nc1-c1ccc(C)cc1
inhibition [1]: 102% | IC50 [2]: 0.491 µM

CCOC(=O)c1c(-c2ccc(C)cc2)csc1NC(=O)/C(C#N)=C/c1ccc(O)c(OC)c1
inhibition [1]: 4.51% | IC50 [2]: > 50 µM (inactive)

CCNc1ccc(Br)cc(C(=O)/C=C/c2ccc(Cl)cc2Cl)c1=O
inhibition [1]: 99.2% | IC50 [2]: 32.9 µM

O=C1NC(=O)N(c2ccccc2)C(=O)/C1=C\c1ccc([N+](=O)[O-])s1
inhibition [1]: 85.5% | IC50 [2]: 14.4 µM

Cc1ccc(NC(=O)CN(C)C(=O)Cn2ncc(Cl)c(Cl)c2=O)cc1
inhibition [1]: 59% | IC50 [2]: 7.77 µM

CC(C)c1ccc(CN2CCN(C(=O)CCl)CC2)cc1
inhibition [1]: 89.6% | IC50 [2]: 7.94 µM

C[C@@H]1C[C@@H]2O[C@H]2/C=C\C=C\C(=O)Cc2c(Cl)c(O)cc(O)c2C(=O)O1
inhibition [1]: 49.4% | IC50 [2]: 0.281 µM

COc1cc(C2Oc3ccccc3C=C2[N+](=O)[O-])cc(OC)c1OC (stereo not drawn)
inhibition [1]: 63.7% | IC50 [2]: 25.5 µM

O=C(/C(=C/c1ccc(Cl)cc1)c1nc2ccccc2[nH]1)c1ccccc1
inhibition [1]: 21.4% | IC50 [2]: > 50 µM (inactive)

Cc1ccc(N2C(=O)NC(=O)/C(=C/C=C/c3ccco3)C2=O)cc1
inhibition [1]: 114% | IC50 [2]: 24.8 µM

COc1cc(NC(=O)Cn2ncc(Cl)c(Cl)c2=O)c(C)cc1[N+](=O)[O-]
inhibition [1]: 64.6% | IC50 [2]: 7.75 µM

Clc1ccc(-c2csc3ncnc(Cl)c23)cc1
inhibition [1]: 72.9% | IC50 [2]: 40.5 µM

O=[N+]([O-])c1ccc(Sc2nnnn2-c2ccccc2)nc1
inhibition [1]: 81.6% | IC50 [2]: 7.59 µM

N#Cc1c(C(F)(F)F)cc(-c2ccccc2)nc1SCc1nc(N)nc(N2CCOCC2)n1
inhibition [1]: 8.72% | IC50 [2]: > 50 µM (inactive)

C=CCSc1nnc(C)c(/C=C/Nc2ccc(Cl)cc2)n1
inhibition [1]: 125% | IC50 [2]: 27.7 µM

O=C(Nc1ccccc1)c1nnsc1S(=O)c1ccc(Cl)cc1 (stereo not drawn)
inhibition [1]: 32.1% | IC50 [2]: > 50 µM (inactive)

CCCCN(C)C1=CC2=CC(=C(C#N)C#N)CCC2CC1 (stereo not drawn)
inhibition [1]: 99.2% | IC50 [2]: 13.6 µM

Cc1nc([N+](=O)[O-])c(Br)n1CC(=O)c1ccc2ccccc2c1
inhibition [1]: 81.3% | IC50 [2]: 5.15 µM

C=CS(=O)(=O)c1sc(Cl)c(N2CCOCC2)c1[N+](=O)[O-]
inhibition [1]: 10.2% | IC50 [2]: > 50 µM (inactive)

CC1C/C(=C/c2ccco2)C(=O)/C(=C/c2ccco2)C1 (stereo not drawn)
inhibition [1]: 64.1% | IC50 [2]: 39.2 µM

Cc1ccc(N2C(=O)NC(=O)/C(=C\C=C\c3ccco3)C2=O)cc1C
inhibition [1]: 83.1% | IC50 [2]: 32.4 µM

COc1ccc(NC(=O)/C(Cl)=C(/Cl)S(=O)Cc2ccccc2)cn1 (stereo not drawn)
inhibition [1]: 64.4% | IC50 [2]: 19.5 µM

Cc1ccc(SC(=O)c2c(C)noc2-c2cc(C)on2)cc1
inhibition [1]: 37.3% | IC50 [2]: > 50 µM (inactive)

O=[N+]([O-])c1c(NCCCO)cc(Sc2nc3ccccc3s2)c2nonc12
inhibition [1]: -7.73% | IC50 [2]: > 50 µM (inactive)

CC(C)(C)c1cnnn1-c1ccc(C(=O)CCl)cc1
inhibition [1]: 67.1% | IC50 [2]: 6.44 µM

CC1CCN(C(=O)c2ccc3c(Cl)c4c(nc3c2)CCCC4)CC1
inhibition [1]: 76.6% | IC50 [2]: 21.4 µM

N#CC(C#N)=C1C=C2C=C(N3CCCCCC3)CCC2CC1 (stereo not drawn)
inhibition [1]: 99.2% | IC50 [2]: 36.2 µM

Nc1c(C(=O)C2CC2)sc2nc(-c3ccccc3)cc(C(F)(F)F)c12
inhibition [1]: 134% | IC50 [2]: 31.2 µM

CCOC(=O)c1c2ccc(OCC(=O)N/N=C/c3ccc(Cl)cc3)cc2n2ccccc12
inhibition [1]: 27.4% | IC50 [2]: > 50 µM (inactive)

O=C1NC(=O)N(c2ccccc2)C(=O)/C1=C/c1ccc([N+](=O)[O-])s1
inhibition [1]: 86.7% | IC50 [2]: 13.4 µM

Nc1cccc2c1C(=O)N(C(=O)/C=C/c1cccc(F)c1)C2=O
inhibition [1]: 14.3% | IC50 [2]: > 50 µM (inactive)

CC(=O)OCCNc1cc(SCc2ccco2)c2nonc2c1[N+](=O)[O-]
inhibition [1]: 59.9% | IC50 [2]: 42.1 µM

COc1ccc([N+](=O)[O-])c(S(=O)(=O)c2ccc(Cl)cc2)n1
inhibition [1]: 34.4% | IC50 [2]: > 50 µM (inactive)

O=C(OCn1ncc(Br)c(Br)c1=O)c1ccc(F)cc1
inhibition [1]: 55% | IC50 [2]: 7.52 µM

Cc1ccccc1-n1nnnc1Sc1nnnn1-c1ccccc1
inhibition [1]: 87.8% | IC50 [2]: 17.6 µM

CCN(CC)c1ccc(/C=C2/SC(=O)N(C(C)C)C2=O)o1
inhibition [1]: 39.9% | IC50 [2]: > 50 µM (inactive)

COc1ccccc1-[n+]1c(C)cc(/C=C2\Sc3ccccc3N2C)cc1C
inhibition [1]: 92% | IC50 [2]: 9.31 µM

CC(=O)Cn1ncc(Br)c(Br)c1=O
inhibition [1]: 78.5% | IC50 [2]: 5.4 µM

Cc1nc([N+](=O)[O-])c(Br)n1CC(=O)c1ccc(Br)cc1
inhibition [1]: 82% | IC50 [2]: 14.7 µM

CCCNC(=O)Cn1c(=O)/c(=C\c2ccc(-c3ccc([N+](=O)[O-])cc3)o2)s/c1=C\C(=O)C(C)(C)C
inhibition [1]: 95.2% | IC50 [2]: 32.2 µM

C=C1C(=O)O[C@H]2C[C@@H](C)[C@@H]3C=CC(=O)[C@@]3(C)C[C@H]12
inhibition [1]: 89.6% | IC50 [2]: 8.71 µM

N#Cc1cccc(N=c2ssnc2Cl)c1
inhibition [1]: 14.7% | IC50 [2]: > 50 µM (inactive)

COC(=O)c1cc(NC(=O)c2cccc(Cl)c2)c(=O)oc1/C=C/Nc1cc(C)cc(C)c1
inhibition [1]: 76.3% | IC50 [2]: 2.54 µM

O=C1C=CC(=O)N1CCNc1ncc(C(F)(F)F)cc1Cl
inhibition [1]: 21.2% | IC50 [2]: > 50 µM (inactive)

CN(C)CC(C(=O)c1ccccc1)c1ccccc1 (stereo not drawn)
inhibition [1]: 70.5% | IC50 [2]: 8.37 µM

Cc1[nH]c2ccccc2c1/C=N/Nc1ccc([N+](=O)[O-])cc1S(=O)(=O)Nc1ccc(Cl)cc1
inhibition [1]: 112% | IC50 [2]: 22.8 µM

Cc1ccnc(N/C=C(\C#N)c2nc(-c3cccc(Br)c3)cs2)c1
inhibition [1]: 102% | IC50 [2]: 8.77 µM

O=C(CCl)Nc1cccc(Oc2ccccc2)c1
inhibition [1]: 56.5% | IC50 [2]: 38.8 µM

O=C1NC(=O)N(Cc2ccc(F)cc2)C(=O)/C1=C\C=C\c1ccco1
inhibition [1]: 74.8% | IC50 [2]: 30.9 µM

COc1ccc(OC)c(N2C(=O)NC(=O)/C(=C/c3ccc([N+](=O)[O-])s3)C2=O)c1
inhibition [1]: 86.6% | IC50 [2]: 12.5 µM

COc1ccc(C(=O)Cn2c(C)nc([N+](=O)[O-])c2Br)cc1
inhibition [1]: 86.4% | IC50 [2]: 3.56 µM

O=C1C=CC(O)(c2cc(=O)c3c(O)cc(O)cc3o2)C=C1
inhibition [1]: 86.7% | IC50 [2]: 5.9 µM

O=C(/C=C/Sc1ccccc1)c1ccccc1
inhibition [1]: 76.9% | IC50 [2]: 30.3 µM

Cc1ccc(/C=C2/C(=O)ON=C2c2ccccc2)o1
inhibition [1]: 15.6% | IC50 [2]: > 50 µM (inactive)

O=C1/C(=C\c2cccnc2)CN(Cc2ccccc2)C/C1=C\c1cccnc1
inhibition [1]: 83.3% | IC50 [2]: 15.5 µM

CCOc1cc(C=C(C(=O)OC)C(=O)OC)ccc1OCc1ccc([N+](=O)[O-])cc1
inhibition [1]: 37.2% | IC50 [2]: > 50 µM (inactive)

CCOC(=O)C1=C(Cc2ccc(OC)cc2)C(=O)c2ccccc2C1=O
inhibition [1]: 21.6% | IC50 [2]: > 50 µM (inactive)

CC[n+]1c(/C=C/C=C/N(C(C)=O)c2ccccc2)sc2ccccc21
inhibition [1]: 99.6% | IC50 [2]: 1.08 µM

N#C/C(=C\c1cccs1)C(=O)c1ccccc1Cl
inhibition [1]: 63.4% | IC50 [2]: > 50 µM (inactive)

CC(C)(C)C(=O)Cn1ncc(Br)c(Br)c1=O
inhibition [1]: 59.6% | IC50 [2]: 7.91 µM

CCN1C(=O)C(=C/C=C/c2ccco2)C(=O)N(CC)C1=S
inhibition [1]: 75.1% | IC50 [2]: 41.3 µM

CC(=O)Oc1ccc(OC(C)=O)c(SCCCCCCl)c1
inhibition [1]: 83.5% | IC50 [2]: 17.6 µM

COC/C=C/C1=CC2=CC(=O)C(C)(OC(=O)c3cnc4ccccc4n3)C(=O)C2=CN1Cc1ccc(OC)cc1 (stereo not drawn)
inhibition [1]: 89.5% | IC50 [2]: 15 µM

CCOC(=O)c1c(NC(=O)CCl)sc(CN(C)C)c1-c1ccccc1
inhibition [1]: 74.1% | IC50 [2]: 29.9 µM

Cc1ccc2nc(Cl)c3nnnn3c2c1
inhibition [1]: 64% | IC50 [2]: 9.43 µM

Cc1ccccc1-n1sc2cc(F)ccc2c1=O
inhibition [1]: 96.2% | IC50 [2]: 13.6 µM

CCOC(=O)C(=Cc1ccc(-n2cncn2)cc1)C(=O)OCC
inhibition [1]: 89.8% | IC50 [2]: 33.7 µM

Cc1cc(C)c(S(=O)(=O)ON2C(=O)c3ccccc3C2=O)cc1C
inhibition [1]: 10.5% | IC50 [2]: > 50 µM (inactive)

COCCCn1c(O)c(/C=C2\N=C(C#N)C(=Nc3ccc(C)cc3)O2)sc1=S
inhibition [1]: 11% | IC50 [2]: > 50 µM (inactive)

COc1ccc(-c2nnc(Sc3nc4ccccc4o3)c3ccccc23)cc1
inhibition [1]: 88.8% | IC50 [2]: 27.2 µM

C#CC(=O)N(c1ccc(OC)cc1OC)C(C(=O)NC1CCCC1)c1cccs1 (stereo not drawn)
inhibition [1]: 0.987% | IC50 [2]: > 50 µM (inactive)

O=Cc1s/c(=N\S(=O)(=O)c2ccccc2)n(CCCCl)c1Cl
inhibition [1]: 68.2% | IC50 [2]: 33.2 µM

O=C1/C(=C/c2ccc(N3CCOCC3)o2)SC(=Nc2ccccc2)N1CCc1c[nH]c2ccccc12
inhibition [1]: 95.6% | IC50 [2]: 1.2 µM

Source: PubChem BioAssay AID463136 (University of Pittsburgh Molecular Library Screening Center, 2010)
